Experimental data: US8394786B2, “Quinazoline derivatives” (Janssen Pharmaceutica N.V., priority 2003, dated 2013)

Experiments:
SKOV3 cells = assay: Serum starved proliferation assay on the ovarian carcinoma SKOV3 cells (C3); format: cell-based; settings: EGF stimulated (100 ng/ml, 72 hours, serum free) or 72 hours with compounds, MTT cell viability assay; for IC50: Homo sapiens, SK-OV-3, 72 h, read-out: SKOV3 cell (C3): pIC50 (converted)
Protocol: The ovarian carcinoma cell line (SKOV3) was used in an epidermal growth factor stimulated cell proliferation assay, to assess the inhibitory effect of the compounds on EGF in whole cells.
In a first step the SKOV3 cells were incubated for 24 hours in the presence of 10% FCS serum. In the second step the cells were incubated with the compounds to be tested in a serum free condition (37° C. and 5% (v/v) CO2) and subsequently stimulated for 72 hours with EGF at a final concentration of 100 ng/ml. The effect of the compounds on the EGF stimulation was finally assessed in a standard MTT cell viability assay.
Alternatively, the SKOV3 cells were incubated for 24 hours in the presence of 10% FCS serum. In the second step the cells were incubated for 72 hours with the compounds to be tested and the effect of the compounds on cell proliferation was finally assessed in a standard MTT cell viability assay.

EGFR = EGFR (Homo sapiens, UniProt P00533); assay: In vitro inhibition of EGFR, Flash Plate or glass-fiber filter technology (C2); format: biochemical; design: 0.5 μg EGFR-kinase domain/well; settings: EGFR-kinase domain, 5.0 μM unlabeled ATP, read-out: Kinase activity.(C2): pIC50 (converted)
Protocol: The in vitro inhibition of EGFR was assessed using either the Flash Plate technology or the glass-fiber filter technology as described by Davies, S. P. et al., Biochem J. (2000), 351; p. 95-105. The Flash Plate technology is generally described by B. A. Brown et al. in High Throughput Screening (1997), p. 317-328. Editor(s): Devlin, John P. Publisher: Dekker, New York, N.Y.
In the Flash Plate EGFR kinase reaction assay, a kinase substrate consisting of biotinylated poly(L-glutamic acid-L-tyrosine) (poly(GT)biotin), is incubated with the aforementioned protein in the presence of (^33P) radiolabeled ATP. (^33P) phosphorylation of the substrate is subsequently measured as light energy emitted using a streptavidin-coated Flash Plate (PerkinElmer Life Sciences) by trapping and quantifying the binding of the biotin tagged and radiolabeled substrate.
The EGFR kinase reaction is performed at 30° C. for 60 minutes in a 96-well microtiter FlashPlate (PerkinElmer Life Sciences). For each of the tested compounds a full dose response 1·10^−6M to 1·10^−10M has been performed. IRESSA° and Tarceva™ (erlotinib) were used as reference compounds. The 100 μl reaction volume contains 54.5 mM TrisHCl pH 8.0, 10 mM MgCl2, 100 μM Na3VO4, 5.0 μM unlabeled ATP, 1 mM DTT, 0.009% BSA, 0.8 μCi AT^33P, 0.35 μg/well poly(GT)biotin and 0.5 μg EGFR-kinase domain/well.
The reaction is stopped by aspirating the reaction mixture and washing the plate 3× with 200 μl wash/stop buffer (PBS+100 mM EDTA). After the final wash step 200 μl of wash/stop buffer was added to each well and the amount of phosphorylated (^33P) Poly(GT)biotin determined by counting (30 sec/well) in a microtiterplate scintillation counter.
In the glass-fiber filter technology EGFR kinase reaction assay, a kinase substrate consisting of poly(L-glutamic acid-L-tyrosine) (poly(GT)), is incubated with the aforementioned protein in the presence of (^33P) radiolabeled ATP. (^33P) Phosporylation of the substrate is subsequently measured as radioactivity bound on a glassfiber-filter.
The EGFR kinase reaction is performed at 25° C. for 10 minutes in a 96-well microtiterplate. For each of the tested compounds a full dose response 1·10^−6M to 1·10^−10M has been performed. IRESSA° and Tarceva™ (erlotinib) were used as reference compounds. The 25 μl reaction volume contains 60 mM TrisHCl pH 7.5, 3 mM MgCl2, 3 mM Mn Cl2, 3 μM Na3VO4, 50 μg/ml PEG20000, 5.0 μM unlabeled ATP, 1 mM DTT, 0.1 μCi AT^33P, 62.5 ng/well poly(GT) and 0.5 μg EGFR-kinase domain/well.
The reaction is stopped by adding 5 μl of a 3% phosphoric acid solution. 10 μl of the reaction mixture is then spotted onto a Filtermat A filter (Wallac) and washed 3 times for 5 min. in 75 mM phosphoric acid and 1 time for 5 min. in methanol prior to drying and quantification on the Typhoon (Amersham) using a LE phosphorage storage screen.

EGFR, sequence (P00533 712-979 limits assumed): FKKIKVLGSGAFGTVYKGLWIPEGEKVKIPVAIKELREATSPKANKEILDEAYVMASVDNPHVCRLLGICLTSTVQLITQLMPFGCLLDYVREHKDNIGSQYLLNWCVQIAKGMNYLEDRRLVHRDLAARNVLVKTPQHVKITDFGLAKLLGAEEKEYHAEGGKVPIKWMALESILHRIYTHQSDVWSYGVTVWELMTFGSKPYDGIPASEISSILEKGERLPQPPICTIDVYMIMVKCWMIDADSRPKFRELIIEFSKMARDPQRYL

SMILES	IC50 (SKOV3 cells) [nM]	IC50 (EGFR) [nM]	SKOV3 cell (C3): pIC50 (SKOV3 cells)
COc1cc2ncnc3c2cc1OCCCCCNCc1cc(F)c(Br)cc1N3 [Compound 61, 4,6-ethenopyrimido[4,5-b][6,1,12]benzoxadiazacyclopentadecine, 17-bromo-16-fluoro-8,9,10,11,12,13,14,19-octahydro-20-methoxy-]	398	15.8	–
COc1cc2ncnc3c2cc1OCCN(CCN1CCOCC1)C(=O)CNC(=O)Cc1ccc(Cl)cc1N3 [Compound 62, 4,6-ethanediylidene-8H-pyrimido[4,5-b][6,1,9,12]benzoxatriazacyclohexadecine-11,14-dione, 18-chloro-9,10,12,13,15,20-hexahydro-21-methoxy-10-[2-(4-morpholinyl)ethyl]-]	5010	398	–
COCCN1CCOc2cc3c(ncnc3cc2OC)Nc2cc(Cl)ccc2CC(=O)NCC1=O [Compound 63, 4,6-ethanediylidene-8H-pyrimido[4,5-b][6,1,9,12]benzoxatriazacyclohexadecine-11,14-dione, 18-chloro-9,10,12,13,15,20-hexahydro-21-methoxy-10-(2-methoxyethyl)-]	2000	126	–
COc1cc2ncnc3c2cc1OCCCCCCOc1cc(NC(=O)c2ccc(F)cc2)ccc1N3 [Compound 64, benzamide, 4-fluoro-N-(8,9,10,11,12,13-hexahydro-20-methoxy-4,6-ethanediylidene-19H-pyrimido[4,5-b][6,13,1]benzodioxaazacyclopentadecin-16-yl)-]	398	1000	–
COc1cc2ncnc3c2cc1OCCNC(=O)C(CC(C)C)NC(=O)Cc1ccc(Cl)cc1N3 (stereo not drawn) [Compound 67, 4,6-ethanediylidene-8H-pyrimido[4,5-b][6,1,9,12]benzoxatriazacyclohexadecine-11,14-dione, 18-chloro-9,10,12,13,15,20-hexahydro-21-methoxy-12-(2-methylpropyl)-]	501	100	–
COc1cc2ncnc3c2cc1OCCNC(=S)C1CCCN1Cc1cc(F)c(Cl)cc1N3 (stereo not drawn) [Compound 104, 4,6-ethanediylidenepyrimido[4,5-b]pyrrolo[2,1-k][6,1,9,12]benzoxatriazacyclopentadecine-11(8H)-thione, 19-chloro-18-fluoro-9,10,11a,12,13,14,16,21-octahydro-22-methoxy-]	316	1000	–
COc1cc2ncnc3c2cc1OCCCC=CCC(NC(=O)OC(C)(C)C)C(=O)NCc1ccc(Cl)cc1N3 (stereo not drawn) [Compound 109, carbamic acid, (20-chloro-9,10,13,14,15,16,17,22-octahydro-23-methoxy-15-oxo-4,6-ethanediylidene-8H-pyrimido[4,5-b][6,1,15]benzoxadiazacyclooctadecin-14-yl)-, 1,1-dimethylethyl ester]	–	2000	6.5
COc1cc2ncnc3c2cc1OCCCCCCC(NC(=O)OC(C)(C)C)C(=O)NCc1ccc(Cl)cc1N3 (stereo not drawn) [Compound 111, carbamic acid, (20-chloro-9,10,11,12,13,14,15,16,17,22-decahydro-23-methoxy-15-oxo-4,6-ethanediylidene-8H-pyrimido[4,5-b][6,1,15]benzoxadiazacyclooctadecin-14-yl)-, 1,1-dimethylethyl ester]	10000	1580	–

Now from value to compound:

IC50 (SKOV3 cells) [nM]	IC50 (EGFR) [nM]	SKOV3 cell (C3): pIC50 (SKOV3 cells)	SMILES
10000	1580	–	COc1cc2ncnc3c2cc1OCC1CCCN(CC(=O)NCCCc2ccc(Cl)cc2N3)C1 (stereo not drawn) [Compound 56, 14H-4,6-ethanediylidene-9,13-methano-8H-pyrimido[4,5-b][6,1,12,15]benzoxatriazacycloeicosin-15(16H)-one, 22-chloro-9,10,11,12,17,18,19,24-octahydro-26-methoxy-]
398	6310	–	COc1cc2ncnc3c2cc1OCC1CCN(CC1)CC(=O)NCCCc1ccc(Cl)cc1N3 [Compound 57, 13H-4,6-ethanediylidene-9,12-ethanopyrimido[4,5-b][6,1,11,14]benzoxatriazacyclononadecin-14(15H)-one, 21-chloro-8,9,10,11,16,17,18,23-octahydro-26-methoxy-]
2000	2000	–	COc1cc2ncnc3c2cc1OCCC1CCN(CC1)CC(=O)NCCCc1ccc(Cl)cc1N3 [Compound 58, 14H-4,6-ethanediylidene-10,13-ethano-8H-pyrimido[4,5-b][6,1,12,15]benzoxatriazacycloeicosin-15(16H)-one, 22-chloro-9,10,11,12,17,18,19,24-octahydro-27-methoxy-]
2	15.8	–	COc1cc2ncnc3c2cc1OCCCNC(=O)CNC(=O)Cc1ccc(Cl)cc1N3 [Compound 60, 4,6-ethanediylidenepyrimido[4,5-b][6,1,10,13]benzoxatriazacycloheptadecine-12,15-dione, 19-chloro-8,9,10,11,13,14,16,21-octahydro-22-methoxy-]
6.31	12.6	–	COc1cc2ncnc3c2cc1OCCCNC(=O)C(CC(C)C)NC(=O)Cc1ccc(Cl)cc1N3 (stereo not drawn) [Compound 68, 4,6-ethanediylidenepyrimido[4,5-b][6,1,10,13]benzoxatriazacycloheptadecine-12,15-dione, 19-chloro-8,9,10,11,13,14,16,21-octahydro-22-methoxy-13-(2-methylpropyl)-]
31.6	251	–	COc1cc2ncnc3c2cc1OCCCCNC(=O)CNCc1ccc(Cl)cc1N3 [Compound 101, 4,6-ethanediylidenepyrimido[4,5-b][6,1,11,14]benzoxatriazacycloheptadecin-13(8H)-one, 19-chloro-9,10,11,12,14,15,16,21-octahydro-22-methoxy-]
50.1	200	–	COc1cc2ncnc3c2cc1OCCCCNC(=O)C1CCCN1Cc1cc(F)c(Cl)cc1N3 (stereo not drawn) [Compound 102, 4,6-ethanediylidenepyrimido[4,5-b]pyrrolo[2,1-m][6,1,11,14]benzoxatriazacycloheptadecin-13(8H)-one, 21-chloro-20-fluoro-9,10,11,12,13a,14,15,16,18,23-decahydro-24-methoxy-]
–	158	7.6	COc1cc2ncnc3c2cc1OCCCC=CCCCC(=O)NCc1ccc(Cl)cc1N3 [Compound 105, 4,6-ethanediylidenepyrimido[4,5-b][6,1,16]benzoxadiazacyclononadecin-16(17H)-one, 21-chloro-8,9,10,13,14,15,18,23-octahydro-24-methoxy-]
–	100	7.2	COc1cc2ncnc3c2cc1OCCCC=CCCCC(=O)NCc1ccc(Cl)cc1N3 [Compound 106, 4,6-ethanediylidenepyrimido[4,5-b][6,1,16]benzoxadiazacyclononadecin-16(17H)-one, 21-chloro-8,9,10,13,14,15,18,23-octahydro-24-methoxy-]
158	398	–	COc1cc2ncnc3c2cc1OCCC=CCCCC(=O)NCc1ccc(Cl)cc1N3 [Compound 108, 4,6-ethanediylidene-8H-pyrimido[4,5-b][6,1,15]benzoxadiazacyclooctadecin-15(16H)-one, 20-chloro-9,12,13,14,17,22-hexahydro-23-methoxy-]
